Patent publication US20160113895A1, “Novel Use of Adapalene in Treating Esophageal Cancer and Gastrointestinal Stromal Tumor” (Biodelight Biotech Inc., priority 2013, published 2016)
pIC50: −log10 of the molar value.

Tests used:
HCC827 = assay: 3D cell proliferation assay (soft agar), HCC827; type: cell-based, human; settings: Homo sapiens, 3D soft agar
Description: (§1) Drug nsl-8 was further subjected to a 3D cell proliferation assay for assessing its potential in inhibiting the growth of NSCLC tumors. The same four NSCLC cell lines used in 2D proliferation assays were grown in soft agar and the drug was added after the agar has solidified. The drug added cells were then incubated several days until colonies have formed in the solvent control. Subsequently, Alamar Blue which was a cell viability reagent was added and the corresponding fluorescence released was measured as an indirect quantification of colony growth in soft agar.
(§2) For each cell line, some 96 well culture plates were prepared. 100 μL of the soft agar bottom layer (0.6% final concentration in complete medium) was poured and left to solidify. 50 μL of the soft agar top layer (0.4% final concentration) containing the corresponding cells and cell number were then added on top, solidified and such 96 well plates were incubated overnight at 37° C. in 10% CO2. Next day, drugs were added at indicated final concentrations into the inner wells of the plate. Subsequently, the assays were incubated in cell culture incubators for the indicated period of time. Finally, the assays were developed using Alamar Blue and upon 3-5 h of incubation at 37 ° C. fluorescence intensity was determined (excitation: 560 nm, emission: 590 nm). […]

[1] = test system: four NSCLC cell lines (A549, H1299, H460, HCC827); assay: 3D cell proliferation assay, summary over the NSCLC cell lines; type: cell-based; settings: Homo sapiens, span over the four NSCLC cell lines
Description: as §1, §2

A549 implanted tumors = assay: Subcutaneous A549 xenograft model, groups 2a-2c, o.p.; settings: for Tumor inhibition rate (%): A549, o.p. once daily, Tarceva 20 mpk; for Tumor inhibition rate (%) / Body weight change (%): NSL-8 70 mpk; for Body weight change (%): A549 tumor-bearing mice, Tarceva 20 mpk o.p.
Description: (§3) The antitumor efficacy of the drug lead nsl-8 searched was studied using the subcutaneous xenografted A549 and HCC827 lung cancer tumor models in vivo. […] Mice were maintained in individual ventilated cages (IVC, max. 4 mice/cage) at constant temperature and humidity. Animal weights were determined three times (Monday, Wednesday and Friday) for groups 1a and 1b or two times (Monday and Thursday) for groups 2a-2c and 3a-3c animals. Animal behaviour was monitored daily.
(§4) On day 0, either 2×10^6 A549 or 2×10^6 HCC827 tumor cells in 100 μL PBS were implanted into the subcutaneous space of the left flank of all corresponding BALB/c nude and SCID mice, respectively. In the following, tumor sizes were determined by caliper measurement. Tumor sizes were calculated according to the formula W^2×Lg/2 (Lg=length and W=the perpendicular width of the tumor, L>W). On day 48 or 30, after mean tumor volumes had reached approx. 100 mm^3, the corresponding tumor-bearing animals were randomized into 2 groups of 8 (A549 model: groups 1a and 1b) or 10 animals (A549 model: groups 2a and 2b) according to tumor sizes. On day 24 or 28, after mean tumor volumes had reached approx. 100 mm^3, the corresponding tumor-bearing animals were randomized into 2 groups of 10 animals (HCC827 model: groups 3a and 3b) according to tumor sizes. […] The percentage of tumor growth inhibition (TGI) was calculated using the following formula: […]
(§5) where T and C represent the mean tumor volume of the treatment and the control group, respectively.
(§6) The solution was aliquoted into several 15 ml sterile centrifuge tubes in 650 μl quantity per tube and then stored frozen at −80° C. until use. […] Animals of group 1b received 40 mg/kg nsl-8 dosage solution once daily through i.p. route on days 48-52 and 62-66, while those of groups 2b and 3b received 70 mg/kg nsl-8 dosage solution once daily through o.p. route on days 1-14 (group 2b) and days 1-14 (group 3b), respectively (Table 4).
(§7) Groups 1a and 1b (A549 model) were terminated on day 69, while groups 2a-2c (A549 model) and 3a-3c (HCC827 model) were terminated on day 15. At necropsy, animals were killed by cervical dislocation. Primary tumor weights and volumes were determined. The tumor volume and weight were analysed using descriptive data analysis (Mean, SEM, Median). Statistical analysis of efficacy data was performed using the unpaired t-test. All the data analyses were performed using GraphPad Prism 5 from GraphPad Software, Inc., San Diego, USA.
(§8) The serum level of blood urea nitrogen (BUN) was measured for assessing the renal function while those of alanine aminotransferase (ALT) and aspartate aminotransferase (AST) were measured using Ektachem DT system (Johnson & Johnson Clinical Diagnostics) for assessing the liver function. The EDTA treated anticoagulated blood samples were also collected for making a complete peripheral blood count by using a Hematology Analyzer (Sysmex, XT-1800i).
(§9) For this study, 0.161 ml nsl-8 stock solution made in DMSO was mixed with 1.339 ml 0.9% w/v saline so that the volume of a final dosage solution prepared to feed an animal was 1.5 ml and containing 10% DMSO. Therefore, both administration routes and vehicles used in treating groups 2a-2b and 3a-3b animals were quite different from that used in treating groups 1a-1b animals.

HCC827 implanted tumors = assay: Subcutaneous HCC827 xenograft model, groups 3a-3c, o.p.; settings: for Tumor inhibition rate (%): HCC827, o.p. once daily, NSL-8 70 mpk, Tarceva 20 mpk
Description: as §3, §4, §5, §6, §7, §8, §9

- pIC50 (HCC827): 5.14
- pIC50 [1]: 4.89 to 6.00
- cell counts of white blood cell, red blood cell, or platelet versus vehicle (A549 implanted tumors; A549 model, peripheral blood at end-point, nsl-8 70 mg/kg, Tarceva 20 mg/kg o.p.): no significant difference
- decline of body weight upon completion of the experiments (A549 implanted tumors; group 2b, 70 mg/kg daily o.p.): 2.0%
- counts of neutrophils and lymphocytes (HCC827 implanted tumors; mouse, in vivo): increase
- counts of red blood cells (HCC827 implanted tumors; mouse, in vivo): decrease
- total white blood cells and platelets counted versus vehicle (HCC827 implanted tumors; mouse, in vivo): no significant difference
Compound: COc1ccc(-c2ccc3cc(C(=O)O)ccc3c2)cc1C12CC3CC(CC(C3)C1)C2 [nsl-8, 6-[3-(1-adamantyl)-4-methoxyphenyl]-2-naphthalenecarboxylic acid]
- serum levels of BUN, ALT, and AST among treatment groups (A549 implanted tumors; A549 model, upon completion of the experiments): no significant difference
- Tumor inhibition rate (%) (A549 implanted tumors; Day 0): 0%
- Body weight change (%) (A549 implanted tumors; Day 0): 0%
- Tumor inhibition rate (%) (A549 implanted tumors; Day 3): 7.1%
- Body weight change (%) (A549 implanted tumors; Day 3): −1.9%
- Tumor inhibition rate (%) (A549 implanted tumors; Day 7): 12.0%
- Body weight change (%) (A549 implanted tumors; Day 7): −1.3%
- Tumor inhibition rate (%) (A549 implanted tumors; Day 10): 17.8%
- Body weight change (%) (A549 implanted tumors; Day 10): −2.6%
- Tumor inhibition rate (%) (A549 implanted tumors; Day 14): 19.1%
- Body weight change (%) (A549 implanted tumors; Day 14): −2.0%
- Tumor inhibition rate (%) (HCC827 implanted tumors; Day 0): 0%
- Tumor inhibition rate (%) (HCC827 implanted tumors; Day 3): 16.6%
- Tumor inhibition rate (%) (HCC827 implanted tumors; Day 7): 13.8%
- Tumor inhibition rate (%) (HCC827 implanted tumors; Day 10): 22.4%
- Tumor inhibition rate (%) (HCC827 implanted tumors; Day 14): 28.7%
- serum levels of BUN, ALT, and AST among treatment groups (HCC827 implanted tumors; mouse, in vivo): no significant difference
